{"source": "paper PMC6475383", "about": "(Proceedings of the National Academy of Sciences of the …, 2019)", "key": {"[1]": {"system": "lectin complement pathway", "assay": "Wieslab lectin pathway assay in human serum", "format": "biochemical", "settings": "up to 100 µM"}, "[2]": {"system": "classical complement pathway", "assay": "Wieslab classical pathway assay in human serum", "format": "biochemical", "settings": "up to 100 µM"}, "[3]": {"system": "receptors, ion channels, kinases, and proteases", "assay": "Broad assay panel", "settings": "up to 10 µM"}, "[4]": {"system": "passive Heymann nephritis", "assay": "Passive Heymann nephritis", "format": "in vivo, Sprague-Dawley rats", "settings": "rats"}, "[5]": {"system": "PNH erythrocytes", "assay": "Ex vivo hemolysis of PNH erythrocytes"}, "[6]": {"system": "KRN/I-Ag7 serum transfer-induced arthritis", "assay": "KRN arthritis model", "format": "in vivo, C57BL/6 mice"}, "[7]": {"system": "sheep erythrocytes", "assay": "C3G patient serum-induced hemolysis of sheep erythrocytes", "format": "cell-based", "settings": "0.15 µM, 20% patient serum, EGTA"}, "[8]": {"system": "PNH erythrocytes", "assay": "C3-opsonization of PNH erythrocytes", "format": "cell-based, human", "settings": "acidified serum, 1 µM, flow cytometry"}, "[9]": {"system": "C3 convertase activity in serum of C3G patients", "assay": "Inhibition of C3 cleavage in C3G patient serum", "format": "biochemical", "settings": "patient serum mixed with normal human serum, Mg2+-EGTA"}, "[10]": {"system": "AP activation in plasma", "assay": "LPS-induced AP activation in mice", "format": "in vivo, C57BL/6J mice", "settings": "30 mg/kg oral, 3.5 h after i.p. LPS"}, "[11]": {"settings": "prophylactic and therapeutic dosing, end of study"}}, "data": [{"smiles": "CCO[C@H]1CCN(Cc2c(OC)cc(C)c3[nH]ccc23)[C@H](c2ccc(C(=O)O)cc2)C1", "note": "[LNP023]", "values": [{"measurement": "inhibition of lectin complement pathway activation", "setting": "[1]", "value": "no inhibition"}, {"measurement": "inhibition of classical complement pathway activation", "setting": "[2]", "value": "no inhibition"}, {"measurement": "effects in a broad assay panel of receptors, ion channels, kinases, and proteases", "setting": "[3]", "value": "no significant effects"}, {"measurement": "glomerular C3 deposition", "setting": "[4]; after compound treatment", "value": "near-complete inhibition of complement activation"}, {"measurement": "glomerulopathy", "setting": "[4]; [11]", "value": "greatly attenuate"}, {"measurement": "overall histopathology score", "setting": "[4]; [11]", "value": "significantly improve"}, {"measurement": "tubular degeneration", "setting": "[4]; [11]", "value": "prevent tubular degeneration"}, {"measurement": "disease progression after onset of proteinuria", "setting": "[4]; therapeutic dosing from day 6", "value": "immediately halted further disease progression"}, {"measurement": "IC50", "setting": "[5]; Homo sapiens, Erythrocyte, 24 h, read-out: IC50 lysis of PNH erythrocytes", "value": 0.4, "unit": "µM"}, {"measurement": "extent of inhibition of hemolysis of PNH erythrocytes", "setting": "[5]; dose-response, acidified NHS, FACS", "value": "full inhibition"}, {"measurement": "disease protection", "setting": "[6]; mice, 60 mg/kg b.i.d. oral", "value": "Full disease protection"}, {"measurement": "disease protection", "setting": "[6]; mice, 180 mg/kg b.i.d. oral", "value": "Full disease protection"}, {"measurement": "overall clinical score", "setting": "[6]; mice, 20, 60, and 180 mg/kg b.i.d. oral", "value": "highly efficacious"}, {"measurement": "complement activation in the joints (Ba, C3d, C5a)", "setting": "[6]; mice, all doses (20, 60, 180 mg/kg b.i.d.)", "value": "significantly inhibited complement activation"}, {"measurement": "joint histology: inflammatory cell infiltration, bone erosion, proteoglycan loss", "setting": "[6]; mice, all treated animals, after 6 d of treatment", "value": "strongly blocked"}, {"measurement": "C3G serum-induced hemolysis of sheep erythrocytes", "setting": "[7]", "value": "potently blocked hemolysis"}, {"measurement": "C3 deposition on the surface of CD59-negative erythrocytes", "setting": "[8]", "value": "able to block C3 deposition"}, {"measurement": "C3 cleavage in C3G patient sera", "setting": "[9]", "value": "blocked abnormal C3 cleavage"}, {"measurement": "complement activation in plasma (C3d/iC3b) after LPS", "setting": "[10]", "value": "effectively blocked complement activation"}]}]}
